Test results reported in ChEMBL document CHEMBL1140773, “Discovery of amide and heteroaryl isosteres as carbamate replacements in a series of orally active gamma-secretase inhibitors” (Bioorg Med Chem Lett, 2008).

Assay: in vivo
Conditions: rat, plasma, po, 10 mg/kg

| Compound | AUC(0-t) at 6 h [µg·h/mL] |
| --- | --- |
| CC[C@@H]1CCC[C@H](C2(CC(=O)N3CC4CCC(C3)N4CCO)CC2)N1S(=O)(=O)c1ccc(Cl)cc1 (mixture of isomers) | 3.22 |
| CC[C@@H]1CCC[C@H](C2(Cc3nc(CN(C)C(C)(C)CO)no3)CC2)N1S(=O)(=O)c1ccc(Cl)cc1 (racemic) | 0.973 |
| CC[C@@H]1CCC[C@H](C2(Cc3nc(CN4CCCC4)no3)CC2)N1S(=O)(=O)c1ccc(Cl)cc1 (racemic) | 0.026 |
| CN(Cc1noc(CC2([C@H]3CCC[C@@H](C4CC4)N3S(=O)(=O)c3ccc(Cl)cc3)CC2)n1)C(C)(C)CO (racemic) | 0.143 |
| CC[C@@H]1CCC[C@H](C2(CC(=O)N3CCN(C(C)(C)CO)CC3)CC2)N1S(=O)(=O)c1ccc(Cl)cc1 (racemic) | 1.62 |

Now from value to molecule:

| AUC(0-t) at 6 h [µg·h/mL] | Compound |
| --- | --- |
| 5.81 | O=C(CC1([C@H]2CCC[C@@H](C3CC3)N2S(=O)(=O)c2ccc(Cl)cc2)CC1)N1CC2CCC(C1)N2CCO (mixture of isomers) |
| 2.65 | CC[C@@H]1CCC[C@H](C2(CC(=O)N3CC4CCC(C3)N4C)CC2)N1S(=O)(=O)c1ccc(Cl)cc1 (mixture of isomers) |
| 1.35 | CC(C)(CO)N1CCN(C(=O)CC2([C@H]3CCC[C@@H](C4CC4)N3S(=O)(=O)c3ccc(Cl)cc3)CC2)CC1 (racemic) |
| 0.419 | CC[C@@H]1CCC[C@H](C2(CC(=O)N3CCN4CCCC[C@H]4C3)CC2)N1S(=O)(=O)c1ccc(Cl)cc1 (racemic) |
| 0.093 | CC[C@@H]1CCC[C@H](C2(CC(=O)N3CCC(N4CCCCC4)CC3)CC2)N1S(=O)(=O)c1ccc(Cl)cc1 (racemic) |
| 0.673 | O=C(CC1([C@H]2CCC[C@@H](C3CC3)N2S(=O)(=O)c2ccc(Cl)cc2)CC1)N1CCN2CCCC[C@H]2C1 (racemic) |
